In publication PMC6540285, “Evaluation of Protein Kinase Inhibitors with PLK4 Cross-Over Potential in a Pre-Clinical Model of Cancer” (International Journal of Molecular Sciences, 2019):

Assays:
PLK4 = biological target: T1, PLK4 (Homo sapiens, UniProt O00444); experiment: SelectScreen kinase profiling, LanthaScreen binding; settings: PLK4, 10 µM
T1 sequence (O00444 1-970): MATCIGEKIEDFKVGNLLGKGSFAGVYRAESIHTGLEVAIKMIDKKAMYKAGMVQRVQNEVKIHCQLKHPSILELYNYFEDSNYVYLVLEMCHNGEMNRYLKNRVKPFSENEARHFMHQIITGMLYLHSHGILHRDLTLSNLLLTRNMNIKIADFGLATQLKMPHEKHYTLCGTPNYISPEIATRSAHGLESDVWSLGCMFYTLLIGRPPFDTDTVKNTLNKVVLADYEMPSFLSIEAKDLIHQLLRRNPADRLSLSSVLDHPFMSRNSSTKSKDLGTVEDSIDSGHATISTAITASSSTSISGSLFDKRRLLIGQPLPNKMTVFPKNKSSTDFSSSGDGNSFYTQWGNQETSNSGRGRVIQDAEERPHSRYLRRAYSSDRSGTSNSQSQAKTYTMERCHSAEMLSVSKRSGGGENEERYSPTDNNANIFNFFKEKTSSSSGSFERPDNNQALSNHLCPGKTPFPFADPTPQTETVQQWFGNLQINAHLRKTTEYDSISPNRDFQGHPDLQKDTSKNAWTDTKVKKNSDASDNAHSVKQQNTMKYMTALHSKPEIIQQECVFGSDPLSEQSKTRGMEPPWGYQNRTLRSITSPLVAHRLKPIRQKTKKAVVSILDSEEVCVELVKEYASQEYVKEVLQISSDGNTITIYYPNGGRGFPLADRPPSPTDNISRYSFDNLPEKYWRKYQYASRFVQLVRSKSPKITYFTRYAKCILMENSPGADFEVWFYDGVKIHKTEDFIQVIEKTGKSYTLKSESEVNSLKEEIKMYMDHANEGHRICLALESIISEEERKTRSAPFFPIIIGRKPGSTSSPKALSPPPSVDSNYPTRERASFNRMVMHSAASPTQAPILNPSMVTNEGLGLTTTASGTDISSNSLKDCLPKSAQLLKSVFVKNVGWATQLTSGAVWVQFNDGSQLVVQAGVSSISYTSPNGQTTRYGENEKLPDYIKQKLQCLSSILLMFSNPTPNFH

JAK1 = JAK1 (Homo sapiens, UniProt P23458); experiment: SelectScreen kinase profiling, ZLYTE; type: biochemical; settings: JAK1, 10 µM
P450 2C8 = P450 2C8 (Homo sapiens, UniProt P10632); experiment: SelectScreen P450 Vivid biochemical assay; settings: 10000nM; substrate DBOMF
MAPK15 (ERK7) = MAPK15 (ERK7) (Homo sapiens, UniProt Q8TD08); experiment: SelectScreen kinase profiling, LanthaScreen binding
hERG channel = hERG channel (Homo sapiens, UniProt Q12809); experiment: biochemical
ZAP70 = ZAP70 (Homo sapiens, UniProt P43403); experiment: SelectScreen kinase profiling, ZLYTE; type: biochemical; settings: ZAP70, 10 µM
From the text: (§1) Kinase Technology % Inhibition Avg Kinase Technology % Inhibition Avg […]
TESK1 LanthaScreen 37 ZAP70 ZLYTE 24
cleavage (Thermo Fisher Scientific, USA)

MAP2K2 (MEK2) = MAP2K2 (MEK2) (Homo sapiens, UniProt P36507); experiment: SelectScreen kinase profiling, LanthaScreen binding
Chain of MAP2K2 (MEK2) (P36507 whole entry): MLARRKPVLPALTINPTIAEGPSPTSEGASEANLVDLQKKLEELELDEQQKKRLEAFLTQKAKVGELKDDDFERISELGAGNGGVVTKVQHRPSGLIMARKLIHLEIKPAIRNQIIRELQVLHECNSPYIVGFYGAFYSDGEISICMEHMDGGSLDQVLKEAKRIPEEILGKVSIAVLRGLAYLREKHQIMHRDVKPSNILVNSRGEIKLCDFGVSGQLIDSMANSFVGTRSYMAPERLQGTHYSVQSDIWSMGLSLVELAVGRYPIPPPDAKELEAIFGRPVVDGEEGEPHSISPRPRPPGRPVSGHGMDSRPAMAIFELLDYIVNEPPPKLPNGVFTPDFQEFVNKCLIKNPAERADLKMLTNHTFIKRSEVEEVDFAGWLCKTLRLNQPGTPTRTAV

[1] = biological target: MAP3K7/MAP3K7IP1 (TAK1-TAB1) (Homo sapiens, UniProt O43318); experiment: as above
IKBKB (IKK beta) = IKBKB (IKK beta) (Homo sapiens, UniProt O14920); experiment: SelectScreen kinase profiling, ZLYTE; type: biochemical
WNK1 = WNK1 (Homo sapiens, UniProt Q9H4A3); experiment: SelectScreen kinase profiling, LanthaScreen binding; settings: WNK1, 10 µM
From the text: as §1

STK32C (YANK3) = STK32C (YANK3) (Homo sapiens, UniProt Q86UX6); experiment: as above
From the text: as §1

TEC = TEC (Homo sapiens, UniProt P42680); experiment: as above
From the text: as §1

STK39 (STLK3) = STK39 (STLK3) (Homo sapiens, UniProt Q9UEW8); experiment: as above
From the text: as §1

STK38L (NDR2) = STK38L (NDR2) (Homo sapiens, UniProt Q9Y2H1); experiment: as above
From the text: as §1

TGFBR2 = TGFBR2 (Homo sapiens, UniProt P37173); experiment: as above; settings: TGFBR2, 10 µM
From the text: as §1

TAOK3 (JIK) = TAOK3 (JIK) (Homo sapiens, UniProt Q9H2K8); experiment: as above
Chain of TAOK3 (JIK) (Q9H2K8 whole entry): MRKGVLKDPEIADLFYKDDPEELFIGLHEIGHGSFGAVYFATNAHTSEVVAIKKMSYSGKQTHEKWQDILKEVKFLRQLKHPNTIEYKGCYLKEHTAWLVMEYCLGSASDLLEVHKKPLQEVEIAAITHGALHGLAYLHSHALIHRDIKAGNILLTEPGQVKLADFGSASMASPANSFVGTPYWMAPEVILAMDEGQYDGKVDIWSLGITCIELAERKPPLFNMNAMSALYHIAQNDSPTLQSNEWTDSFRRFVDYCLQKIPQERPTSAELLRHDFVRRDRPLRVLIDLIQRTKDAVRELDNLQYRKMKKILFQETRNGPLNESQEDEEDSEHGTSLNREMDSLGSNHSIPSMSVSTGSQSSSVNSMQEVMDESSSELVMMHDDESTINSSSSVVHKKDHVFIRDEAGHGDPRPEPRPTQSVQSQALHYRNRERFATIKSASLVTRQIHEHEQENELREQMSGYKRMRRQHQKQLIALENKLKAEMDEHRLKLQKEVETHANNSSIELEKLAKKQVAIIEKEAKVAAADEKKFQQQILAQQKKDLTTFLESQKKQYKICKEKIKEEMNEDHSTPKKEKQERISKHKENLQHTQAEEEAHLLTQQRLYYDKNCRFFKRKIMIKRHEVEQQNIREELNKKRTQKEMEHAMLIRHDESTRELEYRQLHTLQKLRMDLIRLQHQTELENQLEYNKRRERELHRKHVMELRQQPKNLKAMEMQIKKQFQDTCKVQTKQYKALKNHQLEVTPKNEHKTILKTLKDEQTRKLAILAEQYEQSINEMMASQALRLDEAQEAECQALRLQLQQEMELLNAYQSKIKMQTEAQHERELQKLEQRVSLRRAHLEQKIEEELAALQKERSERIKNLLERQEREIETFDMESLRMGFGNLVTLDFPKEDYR
From the text: as §1

ZAK = ZAK (Homo sapiens, UniProt Q9NYL2); experiment: as above
From the text: as §1

ULK2 = ULK2 (Homo sapiens, UniProt Q8IYT8); experiment: as above; settings: ULK2, 10 µM
From the text: as §1

VRK2 = VRK2 (Homo sapiens, UniProt Q86Y07); experiment: as above; settings: VRK2, 10 µM
From the text: as §1

TTK = TTK (Homo sapiens, UniProt P33981); experiment: as above
From the text: as §1

STK33 = STK33 (Homo sapiens, UniProt Q9BYT3); experiment: as above; settings: STK33, 10 µM
From the text: as §1

TNK2 (ACK) = TNK2 (ACK) (Homo sapiens, UniProt Q07912); experiment: as above
From the text: as §1

WNK2 = WNK2 (Homo sapiens, UniProt Q9Y3S1); experiment: as above; settings: WNK2, 10 µM
From the text: as §1

[2] = biological target: PIK3CA E545K/PIK3R1 (p110 alpha E545K/p85 alpha) (Homo sapiens, UniProt P42336, E545K); experiment: SelectScreen kinase profiling, Adapta; type: biochemical; settings: PIK3CA E545K/PIK3R1, 10 µM
Chain of PIK3CA E545K/PIK3R1 (p110 alpha E545K/p85 alpha) (P42336 whole entry E545K): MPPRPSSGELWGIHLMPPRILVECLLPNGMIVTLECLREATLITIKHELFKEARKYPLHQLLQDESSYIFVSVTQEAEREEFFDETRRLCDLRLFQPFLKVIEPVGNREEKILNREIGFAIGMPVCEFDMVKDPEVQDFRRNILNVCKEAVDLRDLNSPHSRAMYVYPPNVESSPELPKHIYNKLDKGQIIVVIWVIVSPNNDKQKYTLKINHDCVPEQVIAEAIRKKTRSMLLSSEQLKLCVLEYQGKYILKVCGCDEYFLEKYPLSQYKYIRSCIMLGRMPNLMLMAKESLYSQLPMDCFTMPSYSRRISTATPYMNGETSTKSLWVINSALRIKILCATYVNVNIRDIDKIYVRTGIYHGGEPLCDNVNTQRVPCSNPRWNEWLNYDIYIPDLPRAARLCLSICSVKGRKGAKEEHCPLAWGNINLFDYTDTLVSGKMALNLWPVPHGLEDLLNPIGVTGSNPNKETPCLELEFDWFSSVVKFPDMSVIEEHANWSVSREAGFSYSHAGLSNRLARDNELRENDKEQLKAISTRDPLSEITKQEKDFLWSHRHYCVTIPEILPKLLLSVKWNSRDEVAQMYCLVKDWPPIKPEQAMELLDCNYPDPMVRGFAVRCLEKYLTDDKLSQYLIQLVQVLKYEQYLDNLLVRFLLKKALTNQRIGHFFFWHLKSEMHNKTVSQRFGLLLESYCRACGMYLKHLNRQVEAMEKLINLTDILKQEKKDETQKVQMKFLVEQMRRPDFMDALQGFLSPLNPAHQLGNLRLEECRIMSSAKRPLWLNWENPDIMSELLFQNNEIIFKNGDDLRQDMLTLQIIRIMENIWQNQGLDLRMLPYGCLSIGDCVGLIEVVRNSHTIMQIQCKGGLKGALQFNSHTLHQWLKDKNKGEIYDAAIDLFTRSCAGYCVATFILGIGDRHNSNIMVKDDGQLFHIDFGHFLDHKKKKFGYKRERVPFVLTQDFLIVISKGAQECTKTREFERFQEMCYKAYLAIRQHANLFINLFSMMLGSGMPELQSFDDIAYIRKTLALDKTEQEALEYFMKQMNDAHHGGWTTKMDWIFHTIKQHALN
Chain of PIK3CA E545K/PIK3R1 (p110 alpha E545K/p85 alpha) (P27986 whole entry partner): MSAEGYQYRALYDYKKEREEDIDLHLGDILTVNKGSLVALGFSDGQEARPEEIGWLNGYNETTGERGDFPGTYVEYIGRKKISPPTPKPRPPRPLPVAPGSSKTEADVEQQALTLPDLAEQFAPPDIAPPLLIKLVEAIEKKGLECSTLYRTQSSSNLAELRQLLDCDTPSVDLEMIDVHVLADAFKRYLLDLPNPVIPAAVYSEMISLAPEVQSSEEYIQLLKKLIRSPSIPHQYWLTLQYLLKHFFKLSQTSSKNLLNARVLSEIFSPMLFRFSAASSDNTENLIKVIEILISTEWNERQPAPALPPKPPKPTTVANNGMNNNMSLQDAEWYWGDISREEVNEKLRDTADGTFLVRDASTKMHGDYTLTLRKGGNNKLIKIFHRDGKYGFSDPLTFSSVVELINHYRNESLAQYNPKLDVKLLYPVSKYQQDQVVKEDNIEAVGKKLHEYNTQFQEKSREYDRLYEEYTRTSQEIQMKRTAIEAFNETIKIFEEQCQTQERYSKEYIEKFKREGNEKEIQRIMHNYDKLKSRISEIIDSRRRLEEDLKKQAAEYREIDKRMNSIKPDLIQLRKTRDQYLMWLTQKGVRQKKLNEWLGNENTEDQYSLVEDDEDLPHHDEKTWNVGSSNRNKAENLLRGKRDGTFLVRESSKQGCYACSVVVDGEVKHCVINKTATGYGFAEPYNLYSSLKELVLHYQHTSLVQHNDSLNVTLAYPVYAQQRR

EPHB3 = EPHB3 (Homo sapiens, UniProt P54753); experiment: SelectScreen kinase profiling, ZLYTE; type: biochemical; settings: EPHB3, 10 µM
LIMK2 = LIMK2 (Homo sapiens, UniProt P53671); experiment: SelectScreen kinase profiling, LanthaScreen binding; settings: LIMK2, 10 µM
Chain of LIMK2 (P53671 whole entry): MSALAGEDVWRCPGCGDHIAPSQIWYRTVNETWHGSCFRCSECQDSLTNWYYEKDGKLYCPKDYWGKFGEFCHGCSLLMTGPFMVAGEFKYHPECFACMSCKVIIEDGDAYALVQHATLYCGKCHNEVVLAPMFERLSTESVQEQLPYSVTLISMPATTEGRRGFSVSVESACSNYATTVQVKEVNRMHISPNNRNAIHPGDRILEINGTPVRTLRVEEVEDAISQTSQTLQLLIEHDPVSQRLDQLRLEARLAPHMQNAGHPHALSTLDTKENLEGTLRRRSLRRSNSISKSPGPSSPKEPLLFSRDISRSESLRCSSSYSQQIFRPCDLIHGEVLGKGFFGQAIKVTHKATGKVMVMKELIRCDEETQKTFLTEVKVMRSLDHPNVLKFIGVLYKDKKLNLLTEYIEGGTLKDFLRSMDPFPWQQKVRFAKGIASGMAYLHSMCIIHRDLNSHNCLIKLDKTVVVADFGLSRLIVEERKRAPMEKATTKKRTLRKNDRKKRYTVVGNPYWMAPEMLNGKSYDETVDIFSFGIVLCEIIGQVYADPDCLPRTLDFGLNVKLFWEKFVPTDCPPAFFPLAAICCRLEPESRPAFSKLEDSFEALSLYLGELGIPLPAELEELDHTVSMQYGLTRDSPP

AMPK (A1/B2/G3) = AMPK (A1/B2/G3) (Homo sapiens, UniProt Q13131); experiment: SelectScreen kinase profiling, ZLYTE; type: biochemical
Chain of AMPK (A1/B2/G3) (Q13131 whole entry): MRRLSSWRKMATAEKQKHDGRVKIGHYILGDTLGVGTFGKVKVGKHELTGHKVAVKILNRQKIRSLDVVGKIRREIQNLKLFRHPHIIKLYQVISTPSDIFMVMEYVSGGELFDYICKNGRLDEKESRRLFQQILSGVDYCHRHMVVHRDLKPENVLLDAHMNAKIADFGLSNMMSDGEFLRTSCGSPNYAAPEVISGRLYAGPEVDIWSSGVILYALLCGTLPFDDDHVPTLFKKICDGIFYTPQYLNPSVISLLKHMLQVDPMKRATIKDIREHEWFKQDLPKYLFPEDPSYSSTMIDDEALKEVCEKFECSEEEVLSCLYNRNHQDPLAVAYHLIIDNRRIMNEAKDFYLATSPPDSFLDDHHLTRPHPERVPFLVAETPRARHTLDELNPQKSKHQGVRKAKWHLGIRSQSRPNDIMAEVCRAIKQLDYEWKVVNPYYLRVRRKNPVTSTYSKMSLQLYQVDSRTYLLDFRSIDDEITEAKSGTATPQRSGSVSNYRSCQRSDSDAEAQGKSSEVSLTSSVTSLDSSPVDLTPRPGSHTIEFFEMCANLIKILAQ
Chain of AMPK (A1/B2/G3) (O43741 whole entry partner): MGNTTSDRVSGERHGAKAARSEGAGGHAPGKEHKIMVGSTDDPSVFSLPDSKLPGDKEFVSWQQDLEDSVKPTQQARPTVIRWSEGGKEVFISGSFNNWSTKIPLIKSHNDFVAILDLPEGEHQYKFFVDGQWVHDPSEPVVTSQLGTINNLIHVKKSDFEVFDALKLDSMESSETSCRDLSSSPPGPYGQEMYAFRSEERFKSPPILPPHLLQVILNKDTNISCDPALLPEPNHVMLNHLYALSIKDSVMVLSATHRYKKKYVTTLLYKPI
Chain of AMPK (A1/B2/G3) (Q9UGI9 whole entry partner): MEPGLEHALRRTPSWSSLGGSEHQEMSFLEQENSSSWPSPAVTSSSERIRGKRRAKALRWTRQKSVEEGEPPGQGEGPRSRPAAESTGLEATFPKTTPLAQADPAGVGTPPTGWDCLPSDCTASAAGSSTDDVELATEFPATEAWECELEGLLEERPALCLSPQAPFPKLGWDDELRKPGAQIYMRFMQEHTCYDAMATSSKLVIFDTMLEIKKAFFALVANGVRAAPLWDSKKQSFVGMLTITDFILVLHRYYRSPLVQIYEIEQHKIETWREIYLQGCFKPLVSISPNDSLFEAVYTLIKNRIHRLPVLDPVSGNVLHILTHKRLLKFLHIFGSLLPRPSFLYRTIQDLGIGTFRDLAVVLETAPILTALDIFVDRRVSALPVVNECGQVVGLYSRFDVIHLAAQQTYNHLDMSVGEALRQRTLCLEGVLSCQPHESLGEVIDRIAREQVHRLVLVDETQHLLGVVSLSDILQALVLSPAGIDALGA

For `O=C(c1ccc(/C=C/c2n[nH]c3ccccc23)cc1)N1CCNCC1` [KW-2449], the inhibition at 10 µM (PLK4) was 61%, the inhibition at 10 µM (JAK1) was 94% and the “% Inhibition 2C8 DBOMF” value (P450 2C8) was 33%. The inhibition at 10 µM (MAPK15 (ERK7)) was -49%, the IC50 (hERG channel) was greater than 10 µM and the inhibition at 10 µM (ZAP70) was 24%. The inhibition at 10 µM (MAP2K2 (MEK2)) was 73%, the inhibition at 10 µM [1] was 26% and the inhibition at 10 µM (IKBKB (IKK beta)) was 66%. For the same compound, the inhibition at 10 µM (WNK1) was 2%, the inhibition at 10 µM (STK32C (YANK3)) was 62% and the inhibition at 10 µM (TEC) was -9%. The inhibition at 10 µM (STK39 (STLK3)) was 38%, the inhibition at 10 µM (STK38L (NDR2)) was 59% and the inhibition at 10 µM (TGFBR2) was 77%. It also gave an inhibition at 10 µM (TAOK3 (JIK)) of 25%, an inhibition at 10 µM (ZAK) of 77% and an inhibition at 10 µM (ULK2) of 56%. It also gave an inhibition at 10 µM (VRK2) of 32%, an inhibition at 10 µM (TTK) of 54% and an inhibition at 10 µM (STK33) of 81%. It also gave an inhibition at 10 µM (TNK2 (ACK)) of 71%, an inhibition at 10 µM (WNK2) of 1% and an inhibition at 10 µM [2] of -3%. The inhibition at 10 µM (EPHB3) was 21%, the inhibition at 10 µM (LIMK2) was 24% and the inhibition at 10 µM (AMPK (A1/B2/G3)) was 99%.
